Source: patent publication US20230321187A1, “OCTOPUS-DERIVED PEPTIDE OCTOPROMYCIN HAVING ANTIBACTERIAL AND ANTI-BIOFILM ACTIVITY AGAINST ACINETOBACTER BAUMANNII” (priority 2020, published 2023)
“Also recorded” adds a separate entry of the source. Where no end group is shown, it is not given here.

Experiments:
A. baumannii biofilm = experiment: Eradication of already formed biofilm (crystal violet staining); format: cell-based, Acinetobacter baumannii; conditions: 24 hours after treatment
Protocol: Next, the effect of octopromycin on biofilm eradication in A. baumannii was confirmed. To measure the eradication effect of the already formed biofilm, 100 μL of A. baumannii (5×10^5 CFU/mL) was cultured in TSB for 24 hours. The culture medium was removed and the wells were carefully washed with PBS to eradicate planktonic bacteria. The wells were added with octopromycin (50 μg/mL (MIC) and 200 μg/mL (MBC)) and further cultured for 24 hours. The biofilm was stained with crystal violet for 30 minutes, washed three times with PBS, and dissolved in 95% ethanol, and the absorbance was measured at 495 nm using a microplate reader (Bio-Rad, USA).

A. baumannii [1] = format: cell-based; conditions: Acinetobacter baumannii, 24 h, 200 μg/mL
Protocol: A. baumannii was cultured in TSB (OD-0.25, 2.5 x 10^6 CFU/mL) and treated with octopromycin at various concentrations (0, 25, 50, 75, 100, 150, and 200 μg/mL). After culturing for 24 hours in a shaking incubator at 180 rpm at 25° C., A. baumannii was centrifuged at 3500 rpm for 10 minutes, and the cells were washed with PBS. For cell viability assay, A. baumannii cells reacted with 20 μL of an MTT reagent (Sigma Aldrich, USA) for 30 minutes, and the samples were resuspended in dimethylsulfoxide (Sigma Aldrich, USA). The cell viability was measured based on OD at 570 nm using a microplate reader (Bio-Rad, Saint Louis, USA).

Raw 264.7 cells = experiment: MTT cytotoxicity assay in Raw 264.7 cells; format: cell-based
Protocol: (§1) To measure the cytotoxicity of octopromycin on HEK293T (American Type Culture Collection ATCC-11268) and Raw 264.7 cells, the cells were treated with octopromycin and cell viability was evaluated. The cells were harvested, counted and seeded at a density of […] per well in a 96-well plate and cultured for 24 hours at 37° C. and 5% CO2. The cells were treated with different concentrations of octopromycin (0 to 800 μg/mL) and cultured for 24 hours. After culturing, the culture medium was replaced with a fresh medium, and 10 μL of MTT (5 mg/mL) was added to each well and incubated in a CO2 incubator for 4 hours. The formed formazan crystals were dissolved in 50 μL of DMSO and absorbance was measured at 570 nm using a microplate reader (Bio-Rad Laboratories, Inc, USA). Cells treated with the medium (control) were considered as 100% viability (control group), and current viability was normalized and calculated for the untreated control group.

[2] = MTT cytotoxicity assay in Raw 264.7 cells; format: cell-based; conditions: mouse, Raw 264.7 cells
Protocol: as §1

A. baumannii [3] = experiment: H2DCF-DA assay of ROS production; format: cell-based, Acinetobacter baumannii; conditions: MIC (50 μg/mL) and MBC (200 μg/mL), 10 hours
Protocol: To further examine a mode of action of octopromycin related to endogenous ROS production in A. baumannii by octopromycin, H2DCF-DA assay was performed. The accumulation of ROS in A. baumannii was quantified using fluorescent probe carboxy-H2DCF-DA (Invitrogen, USA). An A. baumannii culture solution (OD-0.25, 5×10^6 CFU/mL) was treated with octopromycin (MIC; 50 μg/mL and MBC; 200 μg/mL) and cultured at 25° C. for 10 hours, and then, cells were harvested by centrifugation at 5000 rpm for 2 minutes. To detect ROS levels, the cells were stained with H2DCF-DA (100 μg/mL) and cultured at room temperature (24±1° C.) for 30 minutes and then centrifuged at 5000 rpm for 2 minutes. The cells were washed with ×1 PBS and dichloro-fluorescein (DCF) fluorescence was measured using CLSM (LSMS Live Configuration Variotwo VRGB, Zeiss, Germany) at an excitation wavelength of 488 nm and an emission wavelength of 535 nm.

A. baumannii [4] = experiment: MIC and MBC by media dilution test and subculture (CLSI); format: cell-based, Acinetobacter baumannii
Protocol: In Example 2, in order to confirm the antibacterial effect of octopromycin on A. baumannii bacteria having multi-drug resistance, a minimum inhibitory concentration (MIC) and a minimum bactericidal concentration (MBC) of octopromycin were confirmed.
The MIC and MBC levels of octopromycin in A. baumannii were determined using media dilution tests and subcultures, respectively, according to the guidelines of the Clinical and Laboratory Standards Institute (CLSI, 2008 M27-A3). Several concentrations of octopromycin (0, 5, 10, 25, 50, 100, and 200 μg/mL) were tested as standard antibiotics (positive control) together with chloramphenicol (10 μg/mL, Sigma-Aldrich, USA) acting on A. baumannii growth and the MBC of chloramphenicol was confirmed according to the same procedure. The MIC was determined as the minimum concentration required to inhibit visual growth of A. baumannii. […] For analysis of time-kill kinetics, A. baumannii was cultured with octopromycin at various concentrations (0, 25, 50, 100, and 200 μg/mL) in the TSA medium at 25° C., and at different time intervals (0, 3, 6, 9, 12, 18, and 21 h), the absorbance was measured at 595 nm using a microplate reader (Bio-Rad, Saint Louis, USA) to confirm an inhibitory effect after culturing.

Sequence: RRLIRTDTGPIIYDYFKDQLLKKGMVILRESMKNLKGM [octopromycin]
- reduction in biofilm (eradication) (A. baumannii biofilm; MBC (200 μg/mL)): 64.2%
- reduction in biofilm (eradication) (A. baumannii biofilm; MIC (50 μg/mL)): 64.0%
- cell viability of A. baumannii (A. baumannii [1]): 1.54%
- cell viability (Raw 264.7 cells; Raw 264.7, >400 μg/mL): significantly reduced
- toxic effect (Raw 264.7 cells; Raw 264.7, MBC level (200 μg/mL)): no toxic effect
- viability at 24 h, 400 µg/mL ([2]; Raw 264.7, 400 μg/mL, 24 hours, read-out: cell viability): 80%
- viability at 24 h ([2]; Raw 264.7, concentration not stated, read-out: cells alive): ≥ 85%
- ROS level (A. baumannii [3]): increased in a concentration-dependent manner; also recorded: increased the production of reactive oxygen species
- minimum bactericidal concentration (MBC) (A. baumannii [4]; subculture on TSA, 24 hours): 200 µg/mL
- minimum inhibitory concentration (MIC) (A. baumannii [4]; visual growth): 50 µg/mL
